Measurements taken from PubChem BioAssay AID588462 (The Scripps Research Institute Molecular Screening Center, 2011).
Activity calls are given as the source filed them. No rule for the calls is given here.

Experiments:
Assay in all cases: PAD1-3 enzyme inhibition potency, late-stage follow-up, biochemical, colorimetric, BAEE substrate, recombinant PAD1-3 (AID 588462)
[1] = biological target: Protein-arginine deiminase type-1 (Homo sapiens) (UniProt Q9ULC6); details: recombinant PAD1-3, BAEE citrullination, colorimetric absorbance; PAD1
[2] = biological target: Protein-arginine deiminase type-2 (Homo sapiens) (UniProt Q9Y2J8); details: recombinant PAD1-3, BAEE citrullination, colorimetric absorbance; PAD2
[3] = biological target: Protein-arginine deiminase type-3 (Homo sapiens) (UniProt Q9ULW8); details: recombinant PAD1-3, BAEE citrullination, colorimetric absorbance; PAD3
Sequence of Protein-arginine deiminase type-3 (Homo sapiens) (Q9ULW8 whole entry, looked up): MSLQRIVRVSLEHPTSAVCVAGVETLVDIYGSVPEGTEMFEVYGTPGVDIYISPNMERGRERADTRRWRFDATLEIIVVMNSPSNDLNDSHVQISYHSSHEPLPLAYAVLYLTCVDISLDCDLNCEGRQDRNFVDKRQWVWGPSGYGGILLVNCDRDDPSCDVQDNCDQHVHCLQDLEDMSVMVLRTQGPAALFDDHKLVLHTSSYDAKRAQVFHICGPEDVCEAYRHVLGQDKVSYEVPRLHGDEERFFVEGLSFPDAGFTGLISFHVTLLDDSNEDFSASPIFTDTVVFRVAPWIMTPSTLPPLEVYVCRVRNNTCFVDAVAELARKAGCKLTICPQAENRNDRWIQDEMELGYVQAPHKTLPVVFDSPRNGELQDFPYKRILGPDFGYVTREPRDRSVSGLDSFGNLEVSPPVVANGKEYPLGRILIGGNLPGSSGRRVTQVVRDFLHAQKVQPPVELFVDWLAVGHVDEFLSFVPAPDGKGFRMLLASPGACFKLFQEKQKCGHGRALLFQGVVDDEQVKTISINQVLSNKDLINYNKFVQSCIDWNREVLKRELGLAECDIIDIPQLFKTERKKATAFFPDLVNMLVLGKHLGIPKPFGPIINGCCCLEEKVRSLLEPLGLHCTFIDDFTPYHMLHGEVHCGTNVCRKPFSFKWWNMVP

Sequence of Protein-arginine deiminase type-2 (Homo sapiens) (Q9Y2J8 whole entry, looked up): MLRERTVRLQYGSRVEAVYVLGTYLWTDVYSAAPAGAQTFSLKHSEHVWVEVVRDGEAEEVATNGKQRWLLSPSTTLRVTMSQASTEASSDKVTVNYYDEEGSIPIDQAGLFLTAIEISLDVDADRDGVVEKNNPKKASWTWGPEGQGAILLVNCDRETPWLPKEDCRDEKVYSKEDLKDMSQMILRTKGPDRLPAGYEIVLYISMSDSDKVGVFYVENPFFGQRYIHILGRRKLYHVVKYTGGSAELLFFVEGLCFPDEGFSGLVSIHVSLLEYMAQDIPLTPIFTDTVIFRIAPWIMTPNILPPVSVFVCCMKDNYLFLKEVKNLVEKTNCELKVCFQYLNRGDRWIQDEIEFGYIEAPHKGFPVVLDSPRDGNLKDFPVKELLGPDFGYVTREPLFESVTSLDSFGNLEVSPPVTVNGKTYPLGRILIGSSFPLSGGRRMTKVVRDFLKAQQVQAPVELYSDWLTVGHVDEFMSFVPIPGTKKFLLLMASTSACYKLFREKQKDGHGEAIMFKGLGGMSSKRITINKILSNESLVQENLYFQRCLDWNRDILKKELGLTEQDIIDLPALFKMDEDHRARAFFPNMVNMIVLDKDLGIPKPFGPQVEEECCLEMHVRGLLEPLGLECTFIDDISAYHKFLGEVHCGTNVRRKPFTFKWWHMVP
Sequence of Protein-arginine deiminase type-1 (Homo sapiens) (Q9ULC6 whole entry, looked up): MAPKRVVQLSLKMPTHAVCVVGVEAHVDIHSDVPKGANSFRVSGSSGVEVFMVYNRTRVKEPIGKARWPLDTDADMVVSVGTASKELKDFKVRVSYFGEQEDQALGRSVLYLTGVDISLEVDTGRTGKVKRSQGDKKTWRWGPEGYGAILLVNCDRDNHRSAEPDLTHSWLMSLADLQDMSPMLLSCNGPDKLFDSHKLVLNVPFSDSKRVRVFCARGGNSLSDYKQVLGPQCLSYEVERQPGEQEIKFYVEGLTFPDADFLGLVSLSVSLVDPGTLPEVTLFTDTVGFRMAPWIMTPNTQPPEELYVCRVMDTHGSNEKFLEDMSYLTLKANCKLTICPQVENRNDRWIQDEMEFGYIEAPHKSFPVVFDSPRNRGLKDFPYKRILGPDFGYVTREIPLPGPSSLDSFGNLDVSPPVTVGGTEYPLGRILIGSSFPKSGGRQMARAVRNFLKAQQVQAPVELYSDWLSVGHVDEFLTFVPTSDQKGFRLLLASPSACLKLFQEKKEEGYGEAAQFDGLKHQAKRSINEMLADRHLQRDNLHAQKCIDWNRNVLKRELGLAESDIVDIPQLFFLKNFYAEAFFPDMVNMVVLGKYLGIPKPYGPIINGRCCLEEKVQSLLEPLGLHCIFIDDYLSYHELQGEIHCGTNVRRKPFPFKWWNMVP

IC50 [1]: inactive
IC50 [2]: inactive
IC50 [3]: 430 nM
Compound: COC1=C(N)C(=O)c2nc(-c3nc(C(=O)O)c(C)c(-c4ccc(OC)c(OC)c4O)c3N)ccc2C1=O
